Source: patent publication US10668043B2, “Potentiated antimicrobial agents” (priority 2014, dated 2020)
≈ marks a conversion by molar mass, not a printed value. Read-outs that look alike come from different tables or passages of the source. Values belong to the molecule of their own block, whether it stands above or below them.

Tests used:
Staphylococcus = experiment: etest on agar containing the booster; format: cell-based; details: MRSA 10178
Description: (§1) The corresponding tests are made based on the usual MIC test: the etest® (Biomerieux) strip is deposited onto the surface of a seeded agar medium in which the booster has been incorporated. This test enables solvent effect risks, that is a possible interaction with the solvent used in vitro, to be minimised.
(§2) The control corresponds to the test made without cineol. A control is made in each solvent tested: distilled water, Tween/water and DMSO. • ED control=antibiotic alone in distilled water • DMSO control=antibiotic alone in DMSO • TE control=antibiotic alone in Tween® 80

MSSA 8238 = details: Sc.; gentamycin 6 mg/kg or amoxicillin 30 mg/kg, cineol 30 mg/kg where present
Description: To Balb/c mice, is injected (Sc.) the antimicrobial product or the antimicrobial+booster mixture.
At different post-injection times, the mice are euthanised, and blood sampled, heparined and centrifuged to extract plasma thereof
Antibacterial effects are measured after 24 h incubation. The successive dilutions enable the antimicrobial effect to be determined and compared with the MIC. The efficient concentration/MIC ratio is thus determined.

E. coli = experiment: etest on agar containing the booster; format: cell-based; details: Escherichia coli, read-out: MIC
Description: as §1, §2

Pasteurella = experiment: etest on agar containing the booster; format: cell-based
Description: The corresponding tests are made based on the usual MIC test: the etest® (Biomerieux) strip is deposited onto the surface of a seeded agar medium in which the booster has been incorporated.
as §2
Other e-tests are also made on Pasteurella.

MIC (Staphylococcus; Cineol 1 mg DMSO, read-out: MIC): 0.094 µg/mL (≈ 0.221 µM)
MIC (Staphylococcus; Cineol 1 mg Tween/water, read-out: MIC): 0.064 µg/mL (≈ 0.151 µM)
MIC (Staphylococcus; Cineol 4 mg DMSO, read-out: MIC): 0.064 µg/mL (≈ 0.151 µM)
MIC (Staphylococcus; Cineol 4 mg Tween/water, read-out: MIC): 0.064 µg/mL (≈ 0.151 µM)
MIC (Staphylococcus; Cineol 16 mg DMSO, read-out: MIC): 0.047 µg/mL (≈ 0.111 µM)
MIC (Staphylococcus; Cineol 16 mg Tween/water, read-out: MIC): 0.047 µg/mL (≈ 0.111 µM)
MIC (Staphylococcus; DMSO control (antibiotic alone), read-out: MIC): 0.064 µg/mL (≈ 0.151 µM)
MIC (Staphylococcus; ED control (antibiotic alone in distilled water), read-out: MIC): 0.094 µg/mL (≈ 0.221 µM)
MIC (Staphylococcus; Tween water control (antibiotic alone), read-out: MIC): 0.19 µg/mL (≈ 0.447 µM)
Molecule: CCC[C@@H]1C[C@@H](C(=O)N[C@@H]([C@H]2O[C@H](SC)[C@H](O)[C@@H](O)[C@H]2O)[C@H](C)Cl)N(C)C1 [Clindamycin]

Molecule: gentamycin
Time spent beyond the MIC (MSSA 8238): <5 h

MIC (Staphylococcus; Cineol 1 mg DMSO): 0.75^+ mg/L
MIC (Staphylococcus; Cineol 1 mg Tween/water): 0.5 µg/mL (≈ 1.5 µM)
MIC (Staphylococcus; Cineol 4 mg DMSO): 0.5^+ mg/L
MIC (Staphylococcus; Cineol 4 mg Tween/water): 0.38^+ mg/L
MIC (Staphylococcus; Cineol 16 mg DMSO): 0.19^+ mg/L
MIC (Staphylococcus; Cineol 16 mg Tween/water): 0.125^+ mg/L
MIC (Staphylococcus; DMSO control (antibiotic alone)): 1.5 µg/mL (≈ 4.49 µM)
MIC (Staphylococcus; ED control (antibiotic alone in distilled water)): 1 µg/mL (≈ 2.99 µM)
MIC (Staphylococcus; Tween water control (antibiotic alone)): 0.5 µg/mL (≈ 1.5 µM)
Molecule: CC1(C)S[C@@H]2[C@H](NC(=O)Cc3ccccc3)C(=O)N2[C@H]1C(=O)O [Penicillin G]

MIC (E. coli; Coli 8138 (penicillinase), Cineol 1 mg DMSO): 4 µg/mL (≈ 9.36 µM)
MIC (E. coli; Coli 8138 (penicillinase), Cineol 1 mg Tween/water): 4 µg/mL (≈ 9.36 µM)
MIC (E. coli; Coli 8138 (penicillinase), Cineol 4 mg DMSO): 4 µg/mL (≈ 9.36 µM)
MIC (E. coli; Coli 8138 (penicillinase), Cineol 4 mg Tween/water): 3 µg/mL (≈ 7.02 µM)
MIC (E. coli; Coli 8138 (penicillinase), Cineol 16 mg DMSO): 4 µg/mL (≈ 9.36 µM)
MIC (E. coli; Coli 8138 (penicillinase), Cineol 16 mg Tween/water): 1 µg/mL (≈ 2.34 µM)
MIC (E. coli; Coli 8138 (penicillinase), DMSO control (antibiotic alone)): 6 µg/mL (≈ 14 µM)
MIC (E. coli; Coli 8138 (penicillinase), ED control (antibiotic alone in distilled water)): 6 µg/mL (≈ 14 µM)
MIC (E. coli; Coli 8138 (penicillinase), Tween water control (antibiotic alone)): 6 µg/mL (≈ 14 µM)
MIC (E. coli; Coli 8150, Cineol 1 mg DMSO): 8 µg/mL (≈ 18.7 µM)
MIC (E. coli; Coli 8150, Cineol 1 mg Tween/water): 3 µg/mL (≈ 7.02 µM)
MIC (E. coli; Coli 8150, Cineol 4 mg DMSO): 3 µg/mL (≈ 7.02 µM)
MIC (E. coli; Coli 8150, Cineol 4 mg Tween/water): 3 µg/mL (≈ 7.02 µM)
MIC (E. coli; Coli 8150, Cineol 16 mg DMSO): 3 µg/mL (≈ 7.02 µM)
MIC (E. coli; Coli 8150, Cineol 16 mg Tween/water): 1 µg/mL (≈ 2.34 µM)
MIC (E. coli; Coli 8150, DMSO control (antibiotic alone)): 8 µg/mL (≈ 18.7 µM)
MIC (E. coli; Coli 8150, ED control (antibiotic alone in distilled water)): 3 µg/mL (≈ 7.02 µM)
MIC (E. coli; Coli 8150, Tween water control (antibiotic alone)): 6 µg/mL (≈ 14 µM)
MIC (e-test) (Pasteurella; strain 14012, 5 mg cineol DMSO): 0.5 µg/mL (≈ 1.17 µM)
MIC (e-test) (Pasteurella; strain 14012, 5 mg cineol TE): 0.5 µg/mL (≈ 1.17 µM)
MIC (e-test) (Pasteurella; strain 14012, 5 mg cineol water): 0.5 µg/mL (≈ 1.17 µM)
MIC (e-test) (Pasteurella; strain 14012, 10 mg cineol DMSO): 0.38 µg/mL (≈ 0.889 µM)
MIC (e-test) (Pasteurella; strain 14012, 10 mg cineol TE): 0.5 µg/mL (≈ 1.17 µM)
MIC (e-test) (Pasteurella; strain 14012, 10 mg cineol water): 0.5 µg/mL (≈ 1.17 µM)
MIC (e-test) (Pasteurella; strain 14012, DMSO control): 0.5 µg/mL (≈ 1.17 µM)
MIC (e-test) (Pasteurella; strain 14012, ED control): 0.5 µg/mL (≈ 1.17 µM)
MIC (e-test) (Pasteurella; strain 14012, TE control): 0.75 µg/mL (≈ 1.75 µM)
MIC (e-test) (Pasteurella; strain 14014, 5 mg cineol DMSO): 0.19 µg/mL (≈ 0.444 µM)
MIC (e-test) (Pasteurella; strain 14014, 5 mg cineol TE): 0.38 µg/mL (≈ 0.889 µM)
MIC (e-test) (Pasteurella; strain 14014, 5 mg cineol water): 0.5 µg/mL (≈ 1.17 µM)
MIC (e-test) (Pasteurella; strain 14014, 10 mg cineol DMSO): 0.5 µg/mL (≈ 1.17 µM)
MIC (e-test) (Pasteurella; strain 14014, 10 mg cineol TE): 0.38 µg/mL (≈ 0.889 µM)
MIC (e-test) (Pasteurella; strain 14014, 10 mg cineol water): 0.38 µg/mL (≈ 0.889 µM)
MIC (e-test) (Pasteurella; strain 14014, DMSO control): 0.38 µg/mL (≈ 0.889 µM)
MIC (e-test) (Pasteurella; strain 14014, ED Control): 0.38 µg/mL (≈ 0.889 µM)
MIC (e-test) (Pasteurella; strain 14014, TE control): 0.5 µg/mL (≈ 1.17 µM)
Molecule: CO[C@@]1(NC(=O)Cc2cccs2)C(=O)N2C(C(=O)O)=C(COC(N)=O)CS[C@@H]21 [Cefoxitin]
